From ChEMBL document CHEMBL4043168, “The design and SAR of a novel series of 2-aminopyridine based LRRK2 inhibitors” (Bioorg Med Chem Lett, 2017)

Key:
[1] = biological target: Serine/threonine-protein kinase TBK1 (Homo sapiens) (UniProt Q9UHD2); assay: Inhibition of TBK1 conserved Lys2 (DIKPGNIMR) in human PBMC at 1 uM
[2] = biological target: Serine/threonine-protein kinase 24 (Homo sapiens) (UniProt Q9Y6E0); assay: Inhibition of MST3 conserved Lys2 (DIKAANVLLSEHGEVK) in human PBMC at 1 uM
[3] = biological target: Kinase suppressor of Ras 2 (Homo sapiens) (UniProt Q6VAB6); assay: Inhibition of KSR2 activation Loop (SKNVFYDNGK) in human PBMC at 1 uM
Sequence of Kinase suppressor of Ras 2 (Homo sapiens) (Q6VAB6 whole entry): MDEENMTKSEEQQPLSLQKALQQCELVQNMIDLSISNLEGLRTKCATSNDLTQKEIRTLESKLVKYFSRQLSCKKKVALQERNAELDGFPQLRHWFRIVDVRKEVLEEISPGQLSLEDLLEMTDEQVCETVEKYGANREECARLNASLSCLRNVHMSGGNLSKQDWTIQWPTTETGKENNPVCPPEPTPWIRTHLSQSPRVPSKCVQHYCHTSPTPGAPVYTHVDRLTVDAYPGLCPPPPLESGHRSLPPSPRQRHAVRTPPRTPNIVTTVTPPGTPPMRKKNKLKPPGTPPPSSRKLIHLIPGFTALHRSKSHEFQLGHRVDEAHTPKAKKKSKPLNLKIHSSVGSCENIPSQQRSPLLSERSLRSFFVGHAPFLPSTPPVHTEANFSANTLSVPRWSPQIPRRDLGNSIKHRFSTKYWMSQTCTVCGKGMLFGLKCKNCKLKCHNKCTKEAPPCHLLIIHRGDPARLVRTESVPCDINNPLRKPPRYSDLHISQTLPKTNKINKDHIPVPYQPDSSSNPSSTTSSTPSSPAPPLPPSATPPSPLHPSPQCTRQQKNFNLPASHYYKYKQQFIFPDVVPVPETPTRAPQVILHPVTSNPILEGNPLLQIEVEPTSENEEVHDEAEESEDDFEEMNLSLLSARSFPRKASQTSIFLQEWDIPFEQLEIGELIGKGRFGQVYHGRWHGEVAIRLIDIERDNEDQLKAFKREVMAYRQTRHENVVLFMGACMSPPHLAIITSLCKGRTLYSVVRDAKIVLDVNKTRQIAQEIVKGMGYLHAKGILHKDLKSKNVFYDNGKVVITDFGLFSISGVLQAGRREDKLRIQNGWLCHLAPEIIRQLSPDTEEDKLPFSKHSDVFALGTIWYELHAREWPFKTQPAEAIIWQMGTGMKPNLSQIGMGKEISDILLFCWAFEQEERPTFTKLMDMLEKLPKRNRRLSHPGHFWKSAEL

[4] = biological target: T1, Serine/threonine-protein kinase LATS1 (Homo sapiens) (UniProt O95835); assay: Inhibition of LATS1 conserved Lys1 (ALYATKTLR) in human PBMC at 0.1 uM
T1 sequence (whole entry): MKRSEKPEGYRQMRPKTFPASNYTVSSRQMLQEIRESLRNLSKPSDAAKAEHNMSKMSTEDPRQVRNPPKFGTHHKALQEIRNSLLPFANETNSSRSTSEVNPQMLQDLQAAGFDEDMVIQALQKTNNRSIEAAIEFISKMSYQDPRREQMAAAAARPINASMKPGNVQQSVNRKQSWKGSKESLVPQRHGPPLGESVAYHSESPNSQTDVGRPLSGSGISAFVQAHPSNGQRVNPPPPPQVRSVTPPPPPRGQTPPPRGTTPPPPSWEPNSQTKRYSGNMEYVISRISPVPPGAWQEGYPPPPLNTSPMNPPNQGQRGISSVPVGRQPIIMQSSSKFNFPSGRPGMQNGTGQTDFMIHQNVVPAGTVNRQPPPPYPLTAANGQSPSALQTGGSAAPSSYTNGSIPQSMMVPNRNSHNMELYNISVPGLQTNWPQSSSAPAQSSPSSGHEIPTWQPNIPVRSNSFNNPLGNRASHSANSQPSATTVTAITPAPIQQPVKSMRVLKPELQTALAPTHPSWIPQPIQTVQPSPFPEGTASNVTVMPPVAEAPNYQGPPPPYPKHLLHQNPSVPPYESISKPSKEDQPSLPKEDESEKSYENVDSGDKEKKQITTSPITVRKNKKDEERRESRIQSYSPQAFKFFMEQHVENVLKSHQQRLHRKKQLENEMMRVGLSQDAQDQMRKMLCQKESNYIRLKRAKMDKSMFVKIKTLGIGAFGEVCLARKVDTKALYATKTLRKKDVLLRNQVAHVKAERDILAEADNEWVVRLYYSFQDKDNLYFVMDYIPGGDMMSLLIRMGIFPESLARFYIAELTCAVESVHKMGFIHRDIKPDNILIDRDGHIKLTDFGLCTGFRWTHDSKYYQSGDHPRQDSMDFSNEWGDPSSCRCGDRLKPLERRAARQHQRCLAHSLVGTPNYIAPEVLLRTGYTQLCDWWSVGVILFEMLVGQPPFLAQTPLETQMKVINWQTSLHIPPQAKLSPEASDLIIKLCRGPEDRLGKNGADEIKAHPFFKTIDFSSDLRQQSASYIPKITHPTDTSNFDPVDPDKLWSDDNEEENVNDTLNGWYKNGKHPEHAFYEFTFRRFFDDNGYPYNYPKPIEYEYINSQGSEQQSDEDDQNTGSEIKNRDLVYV

[5] = biological target: RAC-alpha serine/threonine-protein kinase (Homo sapiens) (UniProt P31749); assay: Inhibition of AKT1 labeling at ATP binding site (GTFGKVILVK) in human PBMC at 1 uM
[6] = biological target: Tyrosine-protein kinase JAK2 (Homo sapiens) (UniProt O60674); assay: Inhibition of JAK2 domain2 activation Loop (IGDFGLTKVLPQDKEYYK) in human PBMC at 1 uM
Sequence of Tyrosine-protein kinase JAK2 (Homo sapiens) (O60674 whole entry, the tested form may be a part): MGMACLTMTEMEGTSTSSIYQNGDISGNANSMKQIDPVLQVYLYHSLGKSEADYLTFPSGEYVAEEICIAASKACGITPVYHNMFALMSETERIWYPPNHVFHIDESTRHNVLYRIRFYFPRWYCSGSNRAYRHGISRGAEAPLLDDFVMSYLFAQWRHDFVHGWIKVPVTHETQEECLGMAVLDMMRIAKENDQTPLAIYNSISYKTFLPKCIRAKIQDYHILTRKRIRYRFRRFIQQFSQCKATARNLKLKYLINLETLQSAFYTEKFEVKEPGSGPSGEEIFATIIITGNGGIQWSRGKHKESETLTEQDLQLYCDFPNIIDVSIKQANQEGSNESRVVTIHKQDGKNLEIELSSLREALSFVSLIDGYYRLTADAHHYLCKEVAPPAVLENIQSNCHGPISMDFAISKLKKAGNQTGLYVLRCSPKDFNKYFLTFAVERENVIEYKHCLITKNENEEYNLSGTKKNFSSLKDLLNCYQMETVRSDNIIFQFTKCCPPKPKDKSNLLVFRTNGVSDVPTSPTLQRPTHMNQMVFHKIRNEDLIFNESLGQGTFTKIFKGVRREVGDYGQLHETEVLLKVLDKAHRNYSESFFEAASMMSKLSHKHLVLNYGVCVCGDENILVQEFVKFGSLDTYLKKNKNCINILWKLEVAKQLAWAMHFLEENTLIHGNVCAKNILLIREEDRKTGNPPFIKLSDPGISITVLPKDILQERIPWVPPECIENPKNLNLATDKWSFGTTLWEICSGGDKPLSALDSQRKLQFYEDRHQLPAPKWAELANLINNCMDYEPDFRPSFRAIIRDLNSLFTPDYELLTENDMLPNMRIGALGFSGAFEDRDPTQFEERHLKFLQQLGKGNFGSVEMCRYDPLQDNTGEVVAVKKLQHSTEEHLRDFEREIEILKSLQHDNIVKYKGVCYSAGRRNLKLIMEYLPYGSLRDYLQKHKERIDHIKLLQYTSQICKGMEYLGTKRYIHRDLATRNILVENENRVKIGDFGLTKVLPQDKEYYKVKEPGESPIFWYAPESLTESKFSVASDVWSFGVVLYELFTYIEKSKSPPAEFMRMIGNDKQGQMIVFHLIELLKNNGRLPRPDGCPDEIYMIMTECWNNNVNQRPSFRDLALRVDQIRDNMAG

[7] = biological target: Tyrosine-protein kinase BTK (Homo sapiens) (UniProt Q06187); assay: Inhibition of BTK labeling at activation Loop (YVLDDEYTSSVGSKFPVR) in human PBMC at 1 uM
Sequence of Tyrosine-protein kinase BTK (Homo sapiens) (Q06187 whole entry): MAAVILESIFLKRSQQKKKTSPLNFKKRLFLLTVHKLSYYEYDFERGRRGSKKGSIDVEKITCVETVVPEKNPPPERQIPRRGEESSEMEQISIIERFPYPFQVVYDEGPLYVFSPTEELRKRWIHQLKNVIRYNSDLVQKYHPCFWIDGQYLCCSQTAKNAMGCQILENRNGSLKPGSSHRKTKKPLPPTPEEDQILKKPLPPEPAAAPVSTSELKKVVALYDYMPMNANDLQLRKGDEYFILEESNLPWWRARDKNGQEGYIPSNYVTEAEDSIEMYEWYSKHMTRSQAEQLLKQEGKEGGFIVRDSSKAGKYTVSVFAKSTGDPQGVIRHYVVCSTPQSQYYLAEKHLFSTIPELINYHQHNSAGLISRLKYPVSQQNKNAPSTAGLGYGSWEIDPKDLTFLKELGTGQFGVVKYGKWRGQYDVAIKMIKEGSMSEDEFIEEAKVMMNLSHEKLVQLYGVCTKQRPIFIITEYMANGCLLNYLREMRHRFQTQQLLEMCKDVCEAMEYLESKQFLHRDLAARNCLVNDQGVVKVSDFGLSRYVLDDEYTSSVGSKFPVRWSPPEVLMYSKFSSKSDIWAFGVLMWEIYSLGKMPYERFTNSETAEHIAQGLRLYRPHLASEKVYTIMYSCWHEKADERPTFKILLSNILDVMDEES

[8] = biological target: T2, Inhibitor of nuclear factor kappa-B kinase subunit epsilon (Homo sapiens) (UniProt Q14164); assay: Inhibition of IKKe conserved Lys1 (SGELVAVKVFNTTSYLRPR) in human PBMC at 1 uM
T2 sequence (whole entry): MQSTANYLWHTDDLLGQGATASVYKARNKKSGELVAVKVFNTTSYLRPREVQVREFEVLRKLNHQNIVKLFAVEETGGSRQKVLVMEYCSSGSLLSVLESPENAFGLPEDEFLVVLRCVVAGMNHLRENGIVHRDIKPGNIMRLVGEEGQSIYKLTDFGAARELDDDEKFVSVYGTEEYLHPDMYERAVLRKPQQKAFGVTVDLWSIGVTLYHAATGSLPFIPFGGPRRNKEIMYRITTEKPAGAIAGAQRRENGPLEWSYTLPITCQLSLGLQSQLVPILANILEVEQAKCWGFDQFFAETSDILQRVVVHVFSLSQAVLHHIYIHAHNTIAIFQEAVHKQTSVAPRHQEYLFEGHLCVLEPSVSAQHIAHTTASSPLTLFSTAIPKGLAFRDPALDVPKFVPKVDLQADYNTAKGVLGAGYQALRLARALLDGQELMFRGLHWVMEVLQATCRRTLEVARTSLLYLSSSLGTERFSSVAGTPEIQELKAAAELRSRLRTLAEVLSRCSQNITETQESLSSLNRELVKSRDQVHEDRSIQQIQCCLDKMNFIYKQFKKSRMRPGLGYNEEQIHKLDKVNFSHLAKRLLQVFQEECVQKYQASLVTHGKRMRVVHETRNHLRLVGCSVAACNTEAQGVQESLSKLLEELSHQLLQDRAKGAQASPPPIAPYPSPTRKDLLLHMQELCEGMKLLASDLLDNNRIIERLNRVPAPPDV

[9] = biological target: Mitogen-activated protein kinase kinase kinase kinase 5 (Homo sapiens) (UniProt Q9Y4K4); assay: Inhibition of KHS1 conserved Lys1 (NVHTGELAAVKIIK) in human PBMC at 1 uM
[10] = biological target: Serine/threonine-protein kinase WNK1 (Homo sapiens) (UniProt Q9H4A3); assay: Inhibition of Wnk1 ATP binding site (GSFKTVYK) in human PBMC at 0.1 uM
Sequence of Serine/threonine-protein kinase WNK1 (Homo sapiens) (Q9H4A3 whole entry, looked up): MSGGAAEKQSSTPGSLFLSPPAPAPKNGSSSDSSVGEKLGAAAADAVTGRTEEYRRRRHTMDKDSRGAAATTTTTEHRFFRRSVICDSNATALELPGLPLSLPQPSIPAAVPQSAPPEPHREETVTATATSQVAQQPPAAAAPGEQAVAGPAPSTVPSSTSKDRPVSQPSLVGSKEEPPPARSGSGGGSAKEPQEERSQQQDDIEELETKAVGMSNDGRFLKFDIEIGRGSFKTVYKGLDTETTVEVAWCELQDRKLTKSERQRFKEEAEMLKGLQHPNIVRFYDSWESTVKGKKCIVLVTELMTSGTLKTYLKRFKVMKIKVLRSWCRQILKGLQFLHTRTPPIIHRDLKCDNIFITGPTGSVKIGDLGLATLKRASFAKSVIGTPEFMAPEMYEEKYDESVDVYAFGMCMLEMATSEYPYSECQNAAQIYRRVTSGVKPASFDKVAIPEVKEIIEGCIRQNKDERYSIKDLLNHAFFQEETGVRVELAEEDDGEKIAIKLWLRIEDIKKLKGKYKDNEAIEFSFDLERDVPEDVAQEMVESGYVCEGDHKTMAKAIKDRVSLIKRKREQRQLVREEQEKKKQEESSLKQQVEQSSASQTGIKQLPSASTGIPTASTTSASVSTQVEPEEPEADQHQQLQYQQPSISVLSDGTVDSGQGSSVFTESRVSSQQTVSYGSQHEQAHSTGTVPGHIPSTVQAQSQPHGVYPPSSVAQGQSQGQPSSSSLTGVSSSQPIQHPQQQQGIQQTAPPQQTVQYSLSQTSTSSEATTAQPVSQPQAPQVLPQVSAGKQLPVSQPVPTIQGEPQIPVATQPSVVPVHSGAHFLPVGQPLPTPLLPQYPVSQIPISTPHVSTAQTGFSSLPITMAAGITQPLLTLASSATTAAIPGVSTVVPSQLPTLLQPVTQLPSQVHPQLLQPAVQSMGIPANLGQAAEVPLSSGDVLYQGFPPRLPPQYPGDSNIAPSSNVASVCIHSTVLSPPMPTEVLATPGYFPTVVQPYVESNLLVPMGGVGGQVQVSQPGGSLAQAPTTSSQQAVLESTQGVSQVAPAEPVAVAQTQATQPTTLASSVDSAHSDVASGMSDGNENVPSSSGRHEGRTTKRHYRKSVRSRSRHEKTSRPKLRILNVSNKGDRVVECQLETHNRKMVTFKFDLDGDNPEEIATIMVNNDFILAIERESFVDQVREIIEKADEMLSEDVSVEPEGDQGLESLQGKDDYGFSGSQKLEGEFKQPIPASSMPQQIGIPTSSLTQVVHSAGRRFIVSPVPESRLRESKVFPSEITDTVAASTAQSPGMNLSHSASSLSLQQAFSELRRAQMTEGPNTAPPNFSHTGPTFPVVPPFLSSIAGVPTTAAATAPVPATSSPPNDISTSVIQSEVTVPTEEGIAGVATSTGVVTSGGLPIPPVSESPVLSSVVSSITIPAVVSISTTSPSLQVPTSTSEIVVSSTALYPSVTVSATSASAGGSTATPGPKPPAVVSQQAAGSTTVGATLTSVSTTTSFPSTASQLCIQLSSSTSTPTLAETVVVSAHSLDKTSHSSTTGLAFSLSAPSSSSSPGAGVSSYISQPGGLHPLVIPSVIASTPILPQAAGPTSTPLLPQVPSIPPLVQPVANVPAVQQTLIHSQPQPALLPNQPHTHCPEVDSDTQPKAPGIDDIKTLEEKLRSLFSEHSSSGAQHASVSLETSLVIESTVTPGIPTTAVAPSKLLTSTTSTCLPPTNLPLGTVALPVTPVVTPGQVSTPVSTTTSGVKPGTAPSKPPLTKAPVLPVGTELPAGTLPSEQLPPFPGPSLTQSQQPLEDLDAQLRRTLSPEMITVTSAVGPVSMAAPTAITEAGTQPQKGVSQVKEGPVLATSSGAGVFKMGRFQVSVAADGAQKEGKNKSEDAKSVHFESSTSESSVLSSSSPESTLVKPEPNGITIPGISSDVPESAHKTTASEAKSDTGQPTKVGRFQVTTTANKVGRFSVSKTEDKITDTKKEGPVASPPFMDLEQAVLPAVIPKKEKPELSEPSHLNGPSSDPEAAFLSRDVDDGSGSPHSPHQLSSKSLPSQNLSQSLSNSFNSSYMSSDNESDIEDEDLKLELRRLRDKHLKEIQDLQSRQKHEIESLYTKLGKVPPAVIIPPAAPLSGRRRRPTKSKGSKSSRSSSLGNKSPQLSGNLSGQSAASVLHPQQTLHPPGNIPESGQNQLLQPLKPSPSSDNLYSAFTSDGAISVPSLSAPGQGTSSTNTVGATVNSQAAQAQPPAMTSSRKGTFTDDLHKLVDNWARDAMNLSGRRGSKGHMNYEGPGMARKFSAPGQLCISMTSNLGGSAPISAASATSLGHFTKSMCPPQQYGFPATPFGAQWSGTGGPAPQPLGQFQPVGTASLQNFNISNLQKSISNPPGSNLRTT

[11] = biological target: Mitogen-activated protein kinase 9 (Homo sapiens) (UniProt P45984); assay: Inhibition of JNK2 conserved Lys2 (DLKPSNIVVK) in human PBMC at 1 uM
[12] = biological target: Mitogen-activated protein kinase 8 (Homo sapiens) (UniProt P45983); assay: Inhibition of JNK1 conserved Lys2 (DLKPSNIVVK) in human PBMC at 0.1 uM
[13] = biological target: Tyrosine-protein kinase Fer (Homo sapiens) (UniProt P16591); assay: Inhibition of FER conserved Lys2 (QEDGGVYSSSGLKQIPIK) in human PBMC at 1 uM
[14] = biological target: Inhibitor of nuclear factor kappa-B kinase subunit alpha (Homo sapiens) (UniProt O15111); assay: Inhibition of IKKa conserved Lys2 (DLKPENIVLQDVGGK) in human PBMC at 1 uM

CC(C)n1cc(-c2cc(-c3ccc(CN4CCOCC4)cc3)cnc2N)nn1
inhibition [1]: 11%
inhibition [2]: 7.2%
inhibition [3]: 20.1%
inhibition [4]: 23.1%
inhibition [5]: 27.4%
inhibition [6]: 5.2%
inhibition [7]: 17.4%
inhibition [8]: 5.5%
inhibition [9]: 3.8%
inhibition [10]: 18.3%
inhibition [11]: 23.9%
inhibition [12]: 25.1%
inhibition [13]: 5.2%
inhibition [14]: -1.2%
